According to paper PMC13503962, “Uncovering the genetic basis of fruit volatiles in Fragaria vesca through GWAS reveals FvJMT2 as a methyl benzoate biosynthesis gene with bioactivity against Drosophila suzukii” (Horticulture Research, 2026):

system: T1, FvJMT2 (FvJMT2^C275, functional full-length allele); assay: radiochemical methyl transfer from […]-SAM, hexane extraction, scintillation counting; nonlinear Michaelis-Menten fit; assay type: biochemical, Fragaria vesca; settings: co-substrate SAM (saturating); 50 mM Tris-HCl pH 7.5, 2.5 mM MgCl2, 5 mM DTT, 2.5 mM EDTA, 30 °C; read-out: Kinetic parameters / Km /
T1 construct: full-length CDS (1173 nt, 390 residues) in pQE80L, N-terminal 6xHis tag, E. coli XL1-Blue, Ni-NTA purified; tag removal not mentioned

Point of comparison: `O=C(O)/C=C/c1ccccc1` [Cinnamic acid], Km 597 µM. Against it:
- O=C(O)c1ccccc1 [Benzoic acid] — within 1.5-fold, 577 µM
- CC/C=C\C[C@H]1C(=O)CC[C@@H]1CC(=O)O [Jasmonic acid] — 3.4-fold lower, 174 µM
- O=C(O)c1ccccc1O [Salicylic acid] — within 1.5-fold, 690 µM
